Test results as given in paper PMC9578020, “Design, synthesis, molecular modeling, and bioactivity evaluation of 1,10-phenanthroline and prodigiosin (Ps) derivatives and their Copper(I) complexes against mTOR and HDAC enzymes as highly potent and effective new anticancer therapeutic drugs” (Frontiers in Pharmacology, 2022).
pIC50: −log10 of the molar value. Where two headings read alike, the source gives them in different places.

Key:
[1] = CCK8 cytotoxicity test on normal cell line MCF10A; conditions: human, MCF10A normal breast cells
Procedure: (§1) MDA-MB-231 (231) and HTB131 were grown with RPIM-1640 medium (with 10% Fetal Bovine Serum and 2% Penicillin-Streptomycin Solution). MDA-MB-231BR (231BR), CRL-1620 (CRL), and MCF10A were grown with DMEM (with 10% Fetal Bovine Serum and 2% Penicillin-Streptomycin Solution). HTB22 was grown with EMEM (with 10% Fetal Bovine Serum and 2% Penicillin-Streptomycin Solution). Cell lines were taken out from liquid nitrogen and thawed in a 37°C water bath. After thawing, cell cultures were transferred to 75 cm^2 flasks and incubated at 37°C with 5% CO2 for 4–7 days. After reaching 80% of cell confluence, cells were ready for subculturing or testing.
(§2) Anticancer activity tests were performed using a Cell Counting Kit-8 (CCK8, SigmaAldrich) following manufacturer’s instruction ([Shen et al., 2016]). Briefly, 100 µl of diluted cell suspension (approximately 10000 cells) was transferred to 96-well plate, incubated at 37°C with 5% CO2 for 24 h. Then, the compounds were diluted into a serial of concentrations in DMSO. Next, 0.5 µl of diluted compounds were added to 100 µl of cell medium and gently mixed, resulting in the final concentration of DMSO at 0.5%. 100 µl of the compound contained medium were then used to replace the original medium and incubated at 37°C for 48 h. After incubation with compounds, 10 µl of CCK8 reagent was added to each well and mixed by gently tapping the plate. Then, the plate was incubated at 37°C for 2–4 h until the orange color was dark enough to measure. The plate was measured using a Multiskan microplate reader (Fisher Scientific) at 450 nm. The IC50 was calculated by SPSS statistics (IBM). […] All cytotoxicity tests were performed in six biological replicates. Each compound was performed two cycles of screening: primary screening using 10 times serial dilution to determine the approximate concentration and then secondary screening using a narrow concentration range to acquire the accurate IC50.
(§3) The newly synthesized molecules in which their binding affinities were predicted in silico were tested on five different breast cancer lines, MDA-MB-231 (231), MDA-MB-361 (361), HTB131, HTB22, and MDA-MB-231BR (231BR), and one brain cancer cell line, CRL-1620 (CRL). […] Among these cell lines, 231BR attracted most of our interest because it is a brain metastatic specific breast cancer cell line that has 100% rate of brain metastasis and cannot migrate to any other organs ([Yoneda et al., 2001]). The anticancer capacities of each compound were first screened by 10 times dilution to generate different molar concentrations ranging in 5 orders of magnitudes. This wide concentration range was applied for primary screening (Supplementary Table S3) to narrow down the targets. The approximate IC50 was estimated in the primary screening step and used to design the concentration range of the secondary cytotoxicity tests (Supplementary Table S4). […] Anticancer drug taxol (paclitaxel) was used as the reference to estimate the efficacy of each compound. […] The anticancer activity against 231BR is of highest interest. Meanwhile, the same treatments were performed against the normal breast cell line, MCF10A, to test their cytotoxicity. […] A negative logarithm of IC50 was applied to represent the corresponding anticancer activity.

HTB131 = experiment: CCK8 anticancer activity / cytotoxicity test, HTB131; type: cell-based
CRL-1620 (CRL) = experiment: CCK8 anticancer activity / cytotoxicity test, CRL; type: cell-based
MDA-MB-231BR (231BR) = experiment: CCK8 anticancer activity / cytotoxicity test, 231BR; type: cell-based
Procedure: (§4) The IC50 was calculated by SPSS statistics (IBM). […] All cytotoxicity tests were performed in six biological replicates.
(§5) The anticancer activity against 231BR is of highest interest. […] Figure 3 depicts the anticancer activities of these compounds.

MDA-MB-231 (231) = experiment: CCK8 anticancer activity / cytotoxicity test, 231; type: cell-based, human
HTB22 = experiment: CCK8 anticancer activity / cytotoxicity test, HTB22; type: cell-based; conditions: HTB22, 48 h, 10 times serial dilution; read-out: Approximate IC50, primary screening
Procedure: as §4, §5

MCF10A = experiment: CCK8 cytotoxicity test on normal cell line MCF10A
Procedure: as §1, §2, §3

MDA-MB-361 (361) = experiment: CCK8 anticancer activity / cytotoxicity test, 361; type: cell-based
Procedure: as §4, §5

[2] = 231BR, 48 h, 10 times serial dilution, read-out: Approximate IC50, primary screening
[3] = CRL, 48 h, 10 times serial dilution, read-out: Approximate IC50, primary screening

`CCC1=N/C(=C\c2[nH]c(-c3ccc4cc[nH]c4c3)cc2OC)C=C1` [Compound L13] showed an IC50 at 48 h [1] of 3.7 µM, a pIC50 (HTB131; HTB131, 48 h, narrow concentration range, read-out: IC50, secondary cytotoxicity test) of 4.90 and a pIC50 (CRL-1620 (CRL); CRL, 48 h, narrow concentration range, read-out: IC50, secondary cytotoxicity test) of 5.19. For the same compound, the pIC50 (MDA-MB-231BR (231BR); [2]) was 5.51, the pIC50 (MDA-MB-231BR (231BR); 231BR, 48 h, narrow concentration range, read-out: IC50, secondary cytotoxicity test) was 5.30 and the pIC50 (MDA-MB-231 (231); Homo sapiens, MDA-MB-231, 231, 48 h, narrow concentration range, read-out: IC50, secondary cytotoxicity test) was 5.46.

With `CCC1=N/C(=C\c2[nH]c(-c3ccn[nH]3)cc2OC)C=C1` [Compound L9] the pIC50 (CRL-1620 (CRL); [3]) was < 3.78, the pIC50 (HTB22) was < 3.78 and the pIC50 (MDA-MB-231BR (231BR); [2]) was < 3.77.

Compound `CCC1=NC(=Cc2[nH]c(-c3cccc4cc[nH]c34)cc2OC)C=C1.CCC1=NC(=Cc2[nH]c(-c3cccc4cc[nH]c34)cc2OC)C=C1.F[P-](F)(F)(F)(F)F.[Cu+]` [Compound C15] has a pIC50 (MDA-MB-231BR (231BR); [2]) of 4.50.

For `CCC1=NC(=Cc2[nH]c(-c3cccn3C(=O)OC(C)(C)C)cc2OC)C=C1` [L ^7], the pIC50 (MCF10A) was 5.47, the “times lower cytotoxicity on normal cell line” value (MCF10A) was “more than 80 times” and the pIC50 (MDA-MB-231BR (231BR)) was 7.33. It also gave a pIC50 (MDA-MB-231 (231)) of 7.12.

`COc1ccc(-c2ccc3ccc4ccc(-c5ccc(OC)cc5)nc4c3n2)cc1.Cc1cc2ccc1OCCOCCOCCOCCOCCOc1ccc(cc1C)-c1ccc3ccc4ccc-2nc4c3n1.F[P-](F)(F)(F)(F)F.[Cu+]` [Compound C1] gave a pIC50 (MCF10A) of 6.00, a pIC50 (HTB131) of 6.64 and a pIC50 (MDA-MB-361 (361)) of 5.19. For the same compound, the pIC50 (CRL-1620 (CRL)) was 6.50, the pIC50 (MDA-MB-231BR (231BR)) was 6.22 and the pIC50 (MDA-MB-231BR (231BR); [2]) was > 5.00. It also gave a pIC50 (MDA-MB-231 (231)) of 6.39.

With `CCC1=NC(=Cc2[nH]c(-c3ccc4[nH]ccc4c3)cc2OC)C=C1.CCC1=NC(=Cc2[nH]c(-c3ccc4[nH]ccc4c3)cc2OC)C=C1.F[P-](F)(F)(F)(F)F.[Cu+]` [Compound C14] the pIC50 (MCF10A; read-out: Approximate IC50, primary screening, MCF10A normal cell line, 48 h, 10 times serial dilution) was < 3.41, the pIC50 (CRL-1620 (CRL); [3]) was 4.42 and the “anticancer activity increase of copper(I) complex compared with its ligand” value (MDA-MB-231BR (231BR); 231BR, C14 compared with L14) was 5.9 times.

For `CCC1=N/C(=C\c2[nH]c(-c3ccc4[nH]ccc4c3)cc2OC)C=C1` [Compound L14], the pIC50 (CRL-1620 (CRL); [3]) was < 4.10 and the pIC50 (HTB22) was < 4.10.
